Like-named read-outs stand apart in the source and are kept apart here.

For this assay, the target named is T1, PDGF-receptor beta enzyme comprising the tyrosine kinase domain (Homo sapiens, UniProt P09619).
T1 construct: from amino acid 545 to 1106 of GenBank Access NO: AAA36427
Nature of the assay: Inhibition of PDGF-receptor kinase activity (cell-free, PLC1 peptide, 33P Flashplate). The class given is biochemical. As to conditions: for inhibition at 10 µM: read-out: Percent Inhibition @ 10 uM. The method, boiled down:
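The IC50 is the inhibitor level halving kinase activity relative to inhibitor-free wells, measured as 33P captured on a streptavidin-bound biotin-PLC1 peptide. The reaction ran 60 min at 30 °C in pH 8 Tris buffer with 1 mM DTT, 5 μM ATP and the 545–1106 kinase-domain enzyme.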

Where [1] appears, read: PDGF-R kinase activity, compound at 10 uM.
Where [2] appears, read: PDGF-R kinase activity, read-out: IC50.
Setting [3] is: read-out: IC50 (μM) on PDGF-R kinase activity.

T1 sequence (P09619 545-1106): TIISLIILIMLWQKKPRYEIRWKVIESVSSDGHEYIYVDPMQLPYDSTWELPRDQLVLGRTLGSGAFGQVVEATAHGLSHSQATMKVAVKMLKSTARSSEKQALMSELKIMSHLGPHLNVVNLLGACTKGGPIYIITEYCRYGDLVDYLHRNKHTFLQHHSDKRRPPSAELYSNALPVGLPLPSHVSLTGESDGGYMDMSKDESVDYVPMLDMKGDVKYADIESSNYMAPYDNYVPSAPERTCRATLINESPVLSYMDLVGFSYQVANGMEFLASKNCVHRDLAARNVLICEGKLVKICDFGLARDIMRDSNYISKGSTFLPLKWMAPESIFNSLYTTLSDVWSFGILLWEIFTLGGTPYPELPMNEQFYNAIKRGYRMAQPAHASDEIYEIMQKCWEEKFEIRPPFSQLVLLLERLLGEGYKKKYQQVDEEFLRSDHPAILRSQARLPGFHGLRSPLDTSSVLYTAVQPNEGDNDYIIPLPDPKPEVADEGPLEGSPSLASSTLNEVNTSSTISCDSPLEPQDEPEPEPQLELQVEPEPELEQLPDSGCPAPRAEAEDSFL

A word on the inhibition: it is the drop in the measured response relative to a control, in per cent. A word on the IC50: it is the concentration needed to halve the response being measured. In the case of `CCOC(=O)n1nc2c(c1Nc1cccc(F)c1)Cc1cc(OC)c(OC)cc1-2` [Compound 435, 3-(3-Fluoro-phenylamino)-6,7-dimethoxy-4H-indeno[1,2-c]pyrazole-2-carboxylic acid ethyl ester], the inhibition at 10 µM under setting [1] turned out to be 67%. The concentration for half-maximal inhibition (IC50) under setting [2] was 1.59 µM.

Consider `COCCCOc1ccc2c(c1)Cc1c-2n[nH]c1Nc1cccnc1` [Compound 142, [6-(3-Methoxy-propoxy)-2,4-dihydro-indeno[1,2-c]pyrazol-3-yl]-pyridin-3-yl-amine], for which the inhibition at 10 µM under setting [1] stood at 82.5%. For the same molecule, the IC50 under setting [2] amounted to 0.453 µM.

For `COc1cc2c(cc1OC)-c1n[nH]c(NCc3cc(-c4ccccc4)on3)c1C2` [Compound 455, (6,7-Dimethoxy-2,4-dihydro-indeno[1,2-c]pyrazol-3-yl)-(5-phenyl-isoxazol-3-ylmethyl)-amine], the inhibition at 10 µM under setting [1] was determined as 95%. The IC50 under setting [2] was 0.153 µM.

Turning to `COc1cc2c(cc1OC)-c1n[nH]c(Nc3ccc(C#N)cc3)c1C2` [Compound 59, 4-(6,7-Dimethoxy-2,4-dihydro-indeno[1,2-c]pyrazol-3-ylamino)-benzonitrile], under setting [1], the inhibition at 10 µM amounted to 71%. Moreover, the IC50 under setting [2] worked out at 1.82 µM.

With `CN(C)CCCOc1cccc2c1Cc1c-2n[nH]c1Nc1cccnc1` [Compound 75, [5-(3-Dimethylamino-propoxy)-2,4-dihydro-indeno[1,2-c]pyrazol-3-yl]-pyridin-3-yl-amine], the inhibition at 10 µM under setting [1] worked out at 115%. For the same molecule, the IC50 under setting [2] is 0.575 µM.

Turning to `c1ccc(Nc2[nH]nc3c2Cc2sccc2-3)cc1` [Compound 94, (5,7-Dihydro-1-thia-4,5-diaza-cyclopenta[a]pentalen-6-yl)-phenyl-amine], under setting [1], the inhibition at 10 µM came out at 95%. Also, the IC50 under setting [2] is 0.415 µM.

In the case of `Brc1ccc2c(c1)Cc1c-2n[nH]c1Nc1ccccc1` [Compound 158, (6-Bromo-2,4-dihydro-indeno[1,2-c]pyrazol-3-yl)-phenyl-amine], the inhibition at 10 µM under setting [1] stood at 87.5%. For the same molecule, under setting [2], the IC50 was found to be 0.186 µM.

As for `CCC1c2cc(OC)c(OC)cc2-c2n[nH]c(Nc3cccc(Br)c3)c21` (single isomer, unassigned) [Compound 570, *S-(3-Bromo-phenyl)-(6,7-dimethoxy-4-ethyl-2,4-dihydro-indeno[1,2-c]pyrazol-3-yl)-amine], the “Percent Inhibition @ 10 uM” value (PDGF-R kinase activity, compound at 10 uM, 10 µM) was determined as 77.5%. Also, under setting [3], the IC50 amounted to 2.05 µM.

With `CCOc1cccc(Nc2[nH]nc3c2C(C)c2cc(OCC)c(OCC)cc2-3)c1` (stereo not shown) [Compound 504, (6,7-Diethoxy-4-methyl-2,4-dihydro-indeno[1,2-c]pyrazol-3-yl)-(3-ethoxy-phenyl)-amine], the inhibition at 10 µM under setting [1] came out at 101%. For the same molecule, under setting [2], the IC50 is 0.142 µM.

Consider `CN(C)CCCOc1ccc2c(c1)Cc1c-2n[nH]c1Nc1cccc(C(F)(F)F)c1` [Compound 165, [6-(3-Dimethylamino-propoxy)-2,4-dihydro-indeno[1,2-c]pyrazol-3-yl]-(3-trifluoromethyl-phenyl)-amine], for which the inhibition at 10 µM under setting [1] stood at 92.5%. Also, the IC50 under setting [2] came to 0.101 µM.

As for `Cc1cccc2c1Cc1c-2n[nH]c1Nc1ccccc1` [Compound 23, (5-Methyl-2,4-dihydro-indeno[1,2-c]pyrazol-3-yl)-phenyl-amine], under setting [1], the inhibition at 10 µM was determined as 87%. For the same molecule, the IC50 under setting [2] came out at 1.94 µM.

As to `OCC(O)COc1cccc2c1Cc1c-2n[nH]c1NCc1c(Cl)cccc1Cl` (stereo not shown) [Compound 479, 3-[3-(2,6-Dichloro-benzylamino)-2,4-dihydro-indeno[1,2-c]pyrazol-5-yloxy]-propane-1,2-diol], the inhibition at 10 µM under setting [1] turned out to be 94.5%. Also, under setting [2], the IC50 was 0.624 µM.

As to `Cc1ccc(CNc2[nH]nc3c2Cc2cc(F)ccc2-3)cc1Cl` [Compound 306, (3-Chloro-4-methyl-benzyl)-(6-fluoro-2,4-dihydroindeno[1,2-c]pyrazol-3-yl)-amine], the inhibition at 10 µM under setting [1] turned out to be 47.5%. Besides, the IC50 under setting [2] turned out to be 8.59 µM.

For the molecule `Cc1cccc2c1Cc1c-2n[nH]c1Nc1ccc(C(F)(F)F)cc1` [Compound 105, (5-Methyl-2,4-dihydro-indeno[1,2-c]pyrazol-3-yl)-(4-trifluoromethyl-phenyl)-amine], the inhibition at 10 µM under setting [1] was 69%. Also, the IC50 under setting [2] stood at 1.88 µM.

As for `COc1ccc(Nc2[nH]nc3c2C(C)c2ccccc2-3)cc1` (stereo not shown) [Compound 107, (4-Methoxy-phenyl)-(4-methyl-2,4-dihydro-indeno[1,2-c]pyrazol-3-yl)-amine], the inhibition at 10 µM under setting [1] stood at 56%. The IC50 under setting [2] is 1.27 µM.

In the case of `COc1ccc(OC)c(Nc2[nH]nc3c2C(C)c2cc(OC)c(OC)cc2-3)c1` (stereo not shown) [Compound 258, (6,7-Dimethoxy-4-methyl-2,4-dihydro-indeno[1,2-c]pyrazol-3-yl)-(2,5-dimethoxy-phenyl)-amine], the inhibition at 10 µM under setting [1] amounted to 39%.

For the molecule `COc1cccc(Nc2[nH]nc3c2Cc2cc(OC(C)C)c(OC(C)C)cc2-3)c1` [Compound 168, (6,7-Diisopropoxy-2,4-dihydro-indeno[1,2-c]pyrazol-3-yl)-(3-methoxy-phenyl)-amine], under setting [1], the inhibition at 10 µM is 91%. In addition, the IC50 under setting [2] was 0.0688 µM.

Regarding `Brc1ccc2c(c1)Cc1c-2n[nH]c1Nc1cccnc1` [Compound 152, (6-Bromo-2,4-dihydro-indeno[1,2-c]pyrazol-3-yl)-pyridin-3-yl-amine], the inhibition at 10 µM under setting [1] was 80%. In addition, the IC50 under setting [2] was determined as 0.174 µM.

With `COc1cc2c(cc1OC)-c1n[nH]c(Nc3cc(C)cc(C)c3)c1C2` [Compound 206, (6,7-Dimethoxy-2,4-dihydro-indeno[1,2-c]pyrazol-3-yl)-(3,5-dimethyl-phenyl)-amine], the inhibition at 10 µM under setting [1] is 63%. For the same molecule, the IC50 under setting [2] is 0.64 µM.

Consider `COc1ccc(OC)c(Nc2[nH]nc3c2Cc2c(OC)cccc2-3)c1` [Compound 147, (2,5-Dimethoxy-phenyl)-(5-methoxy-2,4-dihydro-indeno[1,2-c]pyrazol-3-yl)-amine], for which the inhibition at 10 µM under setting [1] is 32%. Further, the IC50 under setting [2] is 2.98 µM.

For the molecule `COc1cc2c(cc1OC)-c1n[nH]c(Nc3cccc(C#N)c3)c1C2` [Compound 61, 3-(6,7-Dimethoxy-2,4-dihydro-indeno[1,2-c]pyrazol-3-ylamino)-benzonitrile], the inhibition at 10 µM under setting [1] is 71%. For the same molecule, the IC50 under setting [2] amounted to 0.137 µM.

For `COc1cc2c(cc1OC)-c1n[nH]c(Nc3ccc4cn[nH]c4c3)c1C2` [Compound 37, (6,7-Dimethoxy-2,4-dihydro-indeno[1,2-c]pyrazol-3-yl)-(1H-indazol-6-yl)-amine], under setting [1], the inhibition at 10 µM is 80%. For the same molecule, the IC50 under setting [2] came to 1.98 µM.

As to `COc1cc2c(cc1OC)-c1n[nH]c(Nc3ccc4c(c3)OCO4)c1C2` [Compound 62, Benzo[1,3]dioxol-5-yl-(6,7-dimethoxy-2,4-dihydro-indeno[1,2-c]pyrazol-3-yl)-amine], the inhibition at 10 µM under setting [1] amounted to 85%. Besides, under setting [2], the IC50 was determined as 0.313 µM.

As for `COc1cc2c(cc1OC)-c1n[nH]c(NCc3ccccc3Br)c1C2` [Compound 575, (2-Bromo-benzyl)-(6,7-dimethoxy-2,4-dihydro-indeno[1,2-c]pyrazol-3-yl)-amine], the inhibition at 10 µM under setting [1] is 99.5%. Also, the IC50 under setting [3] is 0.00213 µM.

With `COc1cc2c(cc1OC)-c1nn(C(=O)CC(=O)N3CCCC3)c(Nc3cccc(F)c3)c1C2` [Compound 535, 1-[3-(3-Fluoro-phenylamino)-6,7-dimethoxy-4H-indeno[1,2-c]pyrazol-2-yl]-3-pyrrolidin-1-yl-propane-1,3-dione], the inhibition at 10 µM under setting [1] amounted to 105%. Further, the IC50 under setting [2] stood at 0.0322 µM.

Values taken from US7196110B2, “N-substituted tricyclic 3-aminopyrazoles as inhibitors for the treatment of cell proliferative disorders” (Janssen Phamaceutica N.V., priority 2002, dated 2007).
